Results on four compounds are retold here after patent US20250340848A1, “METHODS FOR CHEMICAL REPROGRAMMING AND PLURIPOTENT STEM CELLS” (Peking University, priority 2022, published 2025).

Common to all, as to assay type: cell-based, human
In experiment [1] the test system is hADSCs. Put plainly: Example 7 chemical reprogramming of hADSCs, OCT4+ hCiPSC colonies. Particulars: for improving reprogramming efficiency: added in stage 1. The protocol:
The stage 1 induction medium contained Knockout DMEM (Gibco) supplemented with 2% B27 supplement (Gibco), 1% Knockout Serum Replacement (KSR; Gibco), 1% GlutaMAX (Gibco), 1% nonessential amino acids (NEAA; Gibco), 1% penicillin-streptomycin, 50 μg ml-1 Vc2p, 5 mM LiCl, 1 mM nicotinamide, 40 ng ml^−1 BMP4 and the small molecules CHIR-99021 (5 μM), 616452 (10 μM), TTNPB (2 μM), SAG (0.5 μM), EPZ-5676 (2 μM), DZNep (0.05 μM), ruxolitinib (1 μM), VTP50469 (0.5 μM), AKT kinase inhibitor (1 μM), JNK-IN-8 (0.2 μM), SETD2-IN-1 (0.2 μM), AM095 free acid (0.5 μM), WM-8014 (1 μM) and A-485 (0.5 μM).
Stage 2 induction medium contained Knockout DMEM supplemented with 2% B27 supplement, 1% GlutaMAX, 1% NEAA, 1% penicillin-streptomycin, 50 μg ml^−1 Vc2p, 200 ng ml^−1 bFGF and the small molecules CHIR-99021 (5 μM), 616452 (10 μM), TTNPB (2 μM), SAG (0.5 μM), JNK-IN-8 (0.5 μM), EPZ-5676 (2 μM), DZNep (0.2 μM), ruxolitinib (1 μM), BIRB 796 (2 μM), SGC-CBP30 (2 μM), VTP50469 (0.5 μM), 5-Iodotubercidin (0.5 μM), AKT kinase inhibitor (0.2 μM), CX-4945 (1 μM), RA (5 μM) and GSK-3685032 (0.02 μM).
Stage 3 induction medium contained Knockout DMEM supplemented with 2% B27 supplement, 1% GlutaMAX, 1% NEAA, 1% penicillin-streptomycin, 5% KSR, 50 μg ml^−1 Vc2p, 20 ng ml^−1 recombinant human heregulinβ-1 (HRG) and the small molecules CHIR-99021 (1 μM), Y-27632 (10 μM), PD0325901 (1 μM) and SB-590885 (0.5 μM). Knockout DMEM containing supplements and the small molecules mentioned above served as the basal medium for stage 3. For the first 2-3 days of stage 3 induction, valproic acid sodium salt (VPA; 200 μM), tranylcypromine (10 μM), DZNep (0.2 μM), EPZ-5676 (2 μM) and PY-60 (10 μM) were added to the basal medium. For the next 2-3 days, VPA (200 μM) and PY-60 (2 μM) were added to the basal medium. Information on the small molecules, cytokines and other reagents is available in Supplementary Table 4.
Hypoxia with 5% O2 was used for stage 1 induction. After stage 1 induction, the culture was changed to 21% O2.
(1) hADSCs and hASFs were seeded in high-glucose DMEM supplemented with 15% FBS at a density of 1.2-1.4×10^4 cells per well in 12-well plates or 0.6-0.7×10^4 cells per well in 24-well plates. The medium was changed to stage 1 induction medium the next day.
(2) For stage 1 induction, single-layer epithelium-like cells emerged on day 4. When the epithelium-like cells reached ˜100% confluence (usually after 6-8 days of stage 1 induction for hADSCs and 8-10 days for hASFs), the medium was changed to stage 2 induction medium. For the induction of hADSCs in 24-well plates, 1 ml of stage 1 medium was added to each well (2 ml per well for 12-well plates), and there was no need to change the medium during stage 1. For the induction of hASFs, stage 1 medium was replaced with fresh medium on day 6. […]

Experiment [2] deals with hADSCs. In words: Stage 1 conversion of hADSCs to epithelial-like cells, morphology (FIG. 3). The following applies: added in stage 1, small-molecule library screen. The protocol: (§1) In one experiment, when converting hCiPSCs from somatic cell (e.g., hADSCs), hypoxia with 5% O2 was used in stage 1 conversion. After stage 1 conversion, cells were incubated with 21% O2. The induction medium was changed every 3-4 days. hADSCs were seeded at a density of 1×10^4 cells per well of a 12-well plate in 15% FBS-DMEM medium and would be changed into stage 1 conversion medium the next day. For stage 1 conversion, single layer epithelial-like cells induced from hADSCs would emerge at day 4-6 and approach 100% confluence at day 8-12. Then the medium was changed into stage 2 conversion medium. For stage 2 conversion, multi-layered cell colonies appeared after 8-12 days of treatment of the cells with the conversion medium, and these cell colonies would continually grow increasingly large. The medium was changed into stage 3 conversion medium after 16 days of treatment with the stage 2 conversion medium. […]
In stage 1, the conversion medium was changed every 3-4 days. hADSCs were seeded at a density of 1×10^4 cells per well of a 12-well plate in 15% FBS-DMEM medium and would be changed into stage I induction medium the next day. […] Conversion into epithelial-like cells can be measured by upregulation of and epithelial cell-related genes. […]

The test system of experiment [3] is hADSCs. In words: Three-stage conversion of hADSCs into hCiPSCs (methods of EXAMPLE 1), numbers of hCiPSC colonies.
Description: FIG. 1 illustrates a schematic of an exemplary method for converting human somatic cells into pluripotent stem cells. The method has 3 stages. During any of the 3 stages, any cell can proliferate and give rise to progeny cells. In stage 1, a first population of cells comprising somatic cells are contacted with a first composition for about 4-12 days. The first population of cells can comprise somatic cells (e.g., fibroblasts or primary human adult adipose derived mesenchymal stromal cells (hADSCs)). During and/or subsequent to contacting the first composition, at least a subset of the cells of the first population of cells or the progenies thereof are converted into a second population of cells. The second population of cells can comprise epithelial-like cells. In stage 2, the second population of cells or the progenies thereof are then contacted with a second composition for about 4-16 days. During and/or subsequent to contacting the second composition, at least a subset of the cells of the second population of cells or the progenies thereof are converted into a third population of cells. The third population of cells can comprise intermediate plastic state cells. In stage 3, the third population of cells or the progenies thereof are contacted with a third composition for about 6-12 days. During and/or subsequent to contacting the third composition, at least a subset of the cells of the third population of cells or the progenies thereof are converted into a fourth population of cells.
FIG. 2 illustrates a schematic of an exemplary method for converting human fibroblasts into pluripotent stem cells. The method can comprise 3 stages. During any of the 3 stages, any cell can proliferate and give rise to progeny cells. In stage 1, a first population of cells comprising fibroblasts is contacted with a first composition for about 8-10 days. During and/or subsequent to contacting the first composition, at least a subset of the cells of the first population of cells or the progenies thereof are converted into a second population of cells. The second population of cells can comprise epithelial-like cells. The epithelial-like cells express an increased amount of LIN28A, relative to the first population of cells or their progenies. In stage 2, the second population of cells or the progenies thereof are then contacted with a second composition for about 12-16 days. During and/or subsequent to contacting the second composition, at least a subset of the cells of the second population of cells or the progenies thereof are converted into a third population of cells. The third population of cells can comprise intermediate plastic state cells. The intermediate plastic state cells express both SALL4 and LIN28A. In stage 3, the third population of cells or the progenies thereof are contacted with a third composition for about 8-10 days. During and/or subsequent to contacting the third composition, at least a subset of the cells of the third population of cells or the progenies thereof are converted into a fourth population of cells. […] The second conversion medium can then be removed from the cells. […] The third stage 3 medium may allow the pluripotent stem cells or the progenies thereof to proliferate.
as §1, with “medium.” for “medium. For stage 2 conversion, multi-layered cell colonies appeared after 8-12 days of treatment of the cells with the conversion medium, and these cell colonies would continually grow increasingly large. The medium was changed into stage 3 conversion medium after 16 days of treatment with the stage 2 conversion medium.”

As for `CNC(=O)Nc1ccc2c(c1)CC[C@@]21OC(=O)N(CC(=O)N(Cc2ccc(F)cc2)[C@@H](C)C(F)(F)F)C1=O` [A485], the “screening of chemical libraries targeting histone modifications during chemical reprogramming stage 1” value in the experiment with hADSCs [1] (0.5 μM screening batch, FIG. 39) is reported as “top candidate”. Also, the improving reprogramming efficiency entry in the experiment on hADSCs [1] is “most effective in improving reprogramming efficiency”.

As to `CCn1c(-c2nonc2N)nc2c(C#CCO)ncc(OCCCN)c21` [AKT Kinase Inhibitor, 3-[2-(4-amino-1,2,5-oxadiazol-3-yl)-7-(3-aminopropoxy)-1-ethylimidazo[4,5-c]pyridin-4-yl]prop-2-yn-1-ol], the “emergence of epithelial-like colonies” value in the experiment with hADSCs [2] is recorded as “further promoted the emergence epithelial-like colonies”. Besides, the reprogramming efficiency entry in the experiment on hADSCs [3] (AKTi and CX4945 included in the stage 2 conversion medium (Base), FIG. 18) is “significantly improved the reprogramming efficiency”. In addition, in the experiment with hADSCs [3] (factor removed from the stage 1 conversion medium, FIG. 4), the “numbers of converted hCiPSCs” value is reported as “minimal numbers of converted hCiPSCs”.

Regarding `CC(C)N(C(=O)c1cc(F)ccc1Oc1cncnc1N1CC2(CCN(CC3CCC(NS(C)(=O)=O)CC3)CC2)C1)C(C)C` (centres unmarked) [VTP50469], the “emergence of epithelial-like colonies” value in the experiment on hADSCs [2] was “further promoted the emergence epithelial-like colonies”. Further, the “increase of the numbers of converted hCiPSCs” value in the experiment with hADSCs [3] (added to the stage 2 conversion medium, relative to medium without it, FIGS. 7A-7B) was “about 7 fold”. Moreover, the “numbers of converted hCiPSCs” value with hADSCs [3] (factor removed from the stage 2 conversion medium, FIG. 17) was “reduced the numbers of converted hCiPSCs”; with hADSCs [3] (various combinations supplemented to stage 1 conversion medium comprising CHIR99021, 616452, TTNPB and AKT Kinase Inhibitor, FIG. 5), “significantly increase the numbers of converted hCiPSCs”.

In the case of `Cc1cc(-c2ccccc2)cc(C(=O)NNS(=O)(=O)c2ccccc2)c1F` [WM8014], the “screening of chemical libraries targeting histone modifications during chemical reprogramming stage 1” value with hADSCs [1] (1 μM screening batch, FIG. 40) is recorded as “top candidate”. The improving reprogramming efficiency result in the experiment with hADSCs [1] is “most effective in improving reprogramming efficiency”.
